Reference: US20230303564A1, “PYRIMIDINE RING COMPOUND” (MEDSHINE DISCOVERY INC., priority 2020, published 2023)
pIC50: −log10 of the molar value.

What was measured:
CDK1/CyclinB1 = CDK1/CyclinB1 (Homo sapiens (Human), UniProt P06493); assay: CDK1/CyclinB1 enzyme activity test (ADP-Glo); assay type: biochemical; settings: 25 μM ATP, 25° C. 120 minutes, read-out: CDK1/Cyclin B IC50
Procedure: CDK1/CyclinB1 Enzyme Reaction System
(§1) Enzymes, substrates, ATP, and inhibitors were diluted by kinase buffer in the kit. The compounds to be tested were diluted 5-fold with a multi-channel pipette to the eighth concentration, that is, from 50 μM to 0.65 nM, the concentration of DMSO was 5%, and a double-hole experiment was set up. 1 μL of each concentration gradient of inhibitors, 2 μL of CDK1/CyclinB1 enzyme (12.5 ng), 2 μL mixture of substrate and ATP (25 μM adenosine triphosphate, 0.2 μg/μL substrate) were added to the microplates, and the final concentration gradient of the compound was 10 μM to 0.13 nM. The reaction system was reacted at 25° C. for 120 minutes. After the reaction, 5 μL of ADP-Glo reagent was added to each well, the reaction was carried out at 25° C. for 40 minutes, after the reaction was completed, 10 μL of kinase detection reagent was added to each well, the reaction was carried out at 25° C. for 30 minutes, the multiple label analyzer was used to read the chemiluminescence with an integration time of 0.5 seconds.
(§2) The equation (Sample−Min)/(Max−Min)*100% was used to convert the raw data into inhibition rate, and the value of IC50 can be obtained by curve fitting with four parameters (obtained by log (inhibitor) vs. response-Variable slope mode in GraphPad Prism). The enzymatic inhibitory activity of the compounds of the present disclosure on CDK1/CyclinB1, CDK2/CyclinA2, CDK2/CyclinE1, CDK4/CyclinD1, CDK6/CyclinD1, CDK7/CyclinH/MAT1, CDK9/CyclinT1 was provided in Table 1.

CDK9/CyclinT1 = CDK9/CyclinT1 (Homo sapiens (Human), UniProt P50750); assay: CDK9/CyclinT1 enzyme activity test (ADP-Glo); assay type: biochemical; settings: 100 μM ATP, 25° C. 120 minutes, read-out: CDK 9/Cyclin T1 IC50
CDK9/CyclinT1, sequence (P50750 whole entry): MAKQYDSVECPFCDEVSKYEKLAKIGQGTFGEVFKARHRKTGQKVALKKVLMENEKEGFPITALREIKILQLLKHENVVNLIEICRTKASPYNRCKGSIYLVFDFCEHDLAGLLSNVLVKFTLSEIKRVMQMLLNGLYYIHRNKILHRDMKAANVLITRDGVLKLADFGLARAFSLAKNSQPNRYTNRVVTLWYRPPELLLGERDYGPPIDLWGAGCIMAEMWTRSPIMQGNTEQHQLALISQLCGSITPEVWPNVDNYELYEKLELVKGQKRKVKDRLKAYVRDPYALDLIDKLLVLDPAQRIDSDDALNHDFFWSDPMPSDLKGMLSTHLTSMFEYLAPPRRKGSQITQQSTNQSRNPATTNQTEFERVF
CDK9/CyclinT1, sequence (O60563 whole entry partner): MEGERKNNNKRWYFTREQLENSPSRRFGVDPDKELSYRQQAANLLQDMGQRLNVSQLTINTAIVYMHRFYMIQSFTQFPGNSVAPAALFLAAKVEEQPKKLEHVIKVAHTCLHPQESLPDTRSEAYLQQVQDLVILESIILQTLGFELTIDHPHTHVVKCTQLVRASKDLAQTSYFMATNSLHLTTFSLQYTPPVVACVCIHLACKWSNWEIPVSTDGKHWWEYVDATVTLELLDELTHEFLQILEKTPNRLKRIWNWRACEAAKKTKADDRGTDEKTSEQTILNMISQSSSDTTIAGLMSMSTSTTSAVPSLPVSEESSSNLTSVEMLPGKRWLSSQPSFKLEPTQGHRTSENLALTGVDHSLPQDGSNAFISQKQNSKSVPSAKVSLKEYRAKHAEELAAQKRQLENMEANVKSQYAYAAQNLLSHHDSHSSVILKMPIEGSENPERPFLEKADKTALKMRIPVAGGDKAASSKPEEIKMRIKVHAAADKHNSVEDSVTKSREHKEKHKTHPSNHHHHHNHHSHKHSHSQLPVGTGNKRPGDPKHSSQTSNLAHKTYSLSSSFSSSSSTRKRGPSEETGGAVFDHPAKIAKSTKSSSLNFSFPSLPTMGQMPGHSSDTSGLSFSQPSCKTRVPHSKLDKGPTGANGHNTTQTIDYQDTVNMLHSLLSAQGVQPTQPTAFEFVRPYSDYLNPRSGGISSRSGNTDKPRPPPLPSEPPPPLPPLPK
Procedure: CDK9/CyclinT1 Enzyme Reaction System
as §1, with “CDK9/CyclinT1” for “CDK1/CyclinB1”, “(4” for “(12.5”, “(100” for “(25”, “ATP,” for “adenosine triphosphate,”
as §2

[1] = Pharmacokinetic evaluation in CD-1 (ICR) mice, oral; assay type: in vivo, mouse; settings: male CD-1 (ICR) mice, oral 5 mg/kg, plasma
Procedure: Experimental Scheme of Compounds 18, 19 and 20
The healthy adult male CD-1 (ICR) mice used in this study were purchased from Pinghu Weitong Lihua Experimental Animal Technology Co., Ltd.
0.300 mL of the stock solution was measured and vortexed for 2 minutes to obtain a homogeneous suspension at a concentration of 1 mg/mL, and the administration vehicle was 1% HPMC in water.
Two male CD-1 (ICR) mice were given 5 mg/kg of the compound to be tested by intragastric administration.
The blood of two animals was collected at each time point by serial blood collection. 30 μL of whole blood was collected respectively at 0.25, 0.5, 1, 2, 4, 8, and 24 hours after administration. The whole blood was placed in an anticoagulant tube, centrifuged at 3200 g for 10 minutes at 4° C., plasma was prepared and stored at −60° C. or lower. The drug concentration in plasma was determined by LC/MS-MS.

CDK1/CyclinB1, sequence (P06493 whole entry): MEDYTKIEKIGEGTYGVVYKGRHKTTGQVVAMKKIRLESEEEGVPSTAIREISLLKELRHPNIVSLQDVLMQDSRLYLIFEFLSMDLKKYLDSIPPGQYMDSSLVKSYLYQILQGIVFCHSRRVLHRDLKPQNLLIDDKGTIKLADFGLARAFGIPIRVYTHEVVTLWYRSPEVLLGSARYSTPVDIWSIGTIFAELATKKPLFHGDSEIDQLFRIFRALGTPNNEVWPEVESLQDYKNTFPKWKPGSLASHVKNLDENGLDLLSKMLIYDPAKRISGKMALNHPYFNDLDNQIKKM
CDK1/CyclinB1, sequence (P14635 whole entry partner): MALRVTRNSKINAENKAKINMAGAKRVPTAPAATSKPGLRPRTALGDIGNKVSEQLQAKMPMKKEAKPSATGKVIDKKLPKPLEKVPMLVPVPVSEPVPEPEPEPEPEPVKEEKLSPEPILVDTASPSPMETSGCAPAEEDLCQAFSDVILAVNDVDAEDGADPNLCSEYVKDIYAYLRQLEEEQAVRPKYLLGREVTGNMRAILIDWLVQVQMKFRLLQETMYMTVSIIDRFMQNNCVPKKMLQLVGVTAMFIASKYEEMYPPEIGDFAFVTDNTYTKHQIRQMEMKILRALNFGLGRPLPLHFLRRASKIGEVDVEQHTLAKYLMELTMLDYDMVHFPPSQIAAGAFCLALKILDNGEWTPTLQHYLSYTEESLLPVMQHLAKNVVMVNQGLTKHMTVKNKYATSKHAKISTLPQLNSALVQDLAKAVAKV

SMILES	pIC50 (CDK1/CyclinB1)	pIC50 (CDK9/CyclinT1)	Oral exposure AUC0-t [1] [µM·h]
CS(=O)(=O)N1CCC(Nc2ncc3cc(C(F)F)nc(N[C@@H]4CCCC4(F)F)c3n2)CC1 (single isomer, unassigned) [Compound 22]	8.05	7.43	–
Cc1cn(C)nc1Nc1nc(C(F)F)cc2cnc(NC3CCN(S(C)(=O)=O)CC3)nc12 [Compound 19]	–	6.75	3.143
Cn1cc(Cl)c(Nc2nc(C(F)F)cc3cnc(NC4CCN(S(C)(=O)=O)CC4)nc23)n1 [Compound 20]	–	6.98	2.746
